Data taken from US9255272B2, “Use of inhibitors of leukotriene B4 receptor BLT2 for treating asthma” (Korea University Research & Business Foundation, priority 2007, dated 2016).

Tests used:
OVA-challenged mice = test: Histological analysis of lung airway inflammation in OVA-challenged mice; type: in vivo, mouse
Method: (§1) Female BALB/c mice and C57BL/6 mice (7 weeks old; 18-20 g) were obtained from Orientbion Inc. (Seoungnam, Korea). Sensitization and challenge were carried out as described previously with some modification (28). Briefly, female C57BL/6 mice (7 weeks old; 18-20 g) were immunized by intraperitoneal (i.p.) injection of 200 μg ovalbumin (OVA) emulsified in 2.5 mg of adjuvant aluminum hydroperoxide gel (alum) (Pierce, Rockford, Ill.). A second i.p. injection of 20 μg OVA adsorbed onto alum (2.5 mg) was administered 10 days later. After an additional 10 days, mice were exposed to an aerosol of 1% OVA in saline for 30 min daily on 3 consecutive days. On day 25, mice were finally challenged by provocation with 10% OVA aerosol. For inhibition experiments, sense or antisense BLT2 (1.6 mg/kg) was injected intravenously 24 h and then 1 h before the 10% OVA challenge. The mice were then killed on day 27 to assess asthmatic phenotypes. Antisense BLT2 oligonucleotide (5′-[…]-3′ (SEQ ID NO: 15)), sense BLT2 oligonucleotide (5′-[…]-3′ (SEQ ID NO: 16)).
(§2) Alternatively, BALB/c mice were sensitized on day 1 by i.p. injection of 20 μg OVA emulsified in 2.5 mg of alum (Pierce, Rockford, Ill.), followed by an identical booster injection administered on day 14. On days 21, 22 and 23 after initial sensitization, the mice were challenged for 30 min with an aerosol of 1% OVA using an ultrasonic nebulizer. LY255283 (2.5 mg/kg) or vehicle control (DMSO) was administered intravenously 1 h before 1% OVA challenge. Mice were killed on day 25, to assess asthmatic phenotypes. 2′,7′-dichorofluorescein diacetate (DCF-DA) was purchased from Molecular Probes (Eugene, Oreg.). BSA and DMSO were from Sigma-Aldrich (St. Louis, Mo.). Acetyl-methacholine chloride was purchased from Sigma-Aldrich (St. Louis, Mo.). All other chemicals were from standard sources and were of molecular biology grade or higher. All mice were maintained and bred under specific pathogen-free conditions in the Korea University mouse facility, and experiments were conducted within the parameters of an approved protocol by the Animal Research Committee.
Inflammatory cells in the BAL fluid were collected by centrifugation (1,000 g for 3 min) and washed once in PBS. Cells were counted using a hemocytometer, and viability was assessed by trypan blue exclusion. In addition, cytospin was carried out for each BAL sample, which was then stained with Diff-Quick (Merck, Dorset, U.K.), enabling differential cell counts to be made. For histological analysis, the lungs of the mice were dissected 48 h after OVA challenge and fixed with 10% formaldehyde in PBS, dehydrated in ethanol-xylene, and embedded in paraffin. Multiple paraffin-embedded […] sections were placed on 0.5% gelatin-coated slides, deparaffinized, and stained with hematoxylin-eosin (HE). Images were acquired using a BX51 microscope (Olympus, Tokyo, Japan) equipped with a DP71 digital camera (Olympus, Tokyo, Japan).
(§3) Inflammatory cells in the BAL fluid were collected by centrifugation (1,000 g for 3 min) and washed once in PBS. Cells were counted using a hemocytometer, and viability was assessed by trypan blue exclusion. […]
as §3

VCAM-1 = VCAM-1 expression in lung tissue (Western blot); type: in vivo, mouse
Method: as §1
as §2, with “All mice were maintained and bred under specific pathogen-free conditions in the Korea University mouse facility, and experiments were conducted within the parameters of an approved protocol by the Animal Research Committee.” left out

[1] = BALB/c mice, LY255283 2.5 mg/kg i.v. 1 hr before 1% OVA challenge
[2] = C57BL/6 mice, antisense BLT2 1.6 mg/kg i.v. 24 hr and 1 hr before 10% OVA challenge

CCc1cc(C(C)=O)c(O)cc1OCCCCCC(C)(C)c1nnn[nH]1 [LY255283, 1-[5-ethyl-2-hydroxy-4-[[6-methyl-6-(1H-tetrazol-5-yl)heptyl]oxy]phenyl]-ethanone, reference compound]
airway obstruction and leukocyte infiltration (histology) (OVA-challenged mice; [1]): diminished the effect | reduction of inflammation score as compared to control (OVA-challenged mice; [1]): ~66% | suppression of OVA-induced VCAM-1 induction in lung tissue (VCAM-1; LY255283 2.5 mg/kg 1 hr before 1% OVA challenge): −60%

antisense Rac: phosphorothioate 17-mer to the 5′ end of murine Rac mRNA, 5′-CACTTGATGGCCTGCAT-3′ (SEQ ID NO: 22) (listed as DNA, chemistry not fully specified)
airway obstruction and leukocyte infiltration (histology) (OVA-challenged mice; Rac antisense i.v. 24 hr and 1 hr before 10% OVA challenge, 48 hr after challenge): diminished the effect | OVA-induced VCAM-1 induction in lung tissue (VCAM-1; antisense Rac 1.25 mg/kg, tail vein): suppressed this effect

antisense BLT2: Antisense BLT2 oligonucleotide 5′-GCTCAGTAGTGTCTCATTCC-3′ (SEQ ID NO: 15) (listed as DNA, chemistry not fully specified)
airway obstruction and leukocyte infiltration (histology) (OVA-challenged mice; [2]): diminished | reduction of inflammation scores as compared to control (OVA-challenged mice; [2]): ~67% | suppression of OVA-induced VCAM-1 induction in lung tissue (VCAM-1; antisense BLT2 1.6 mg/kg): −60%
